Experimental data: patent US11998606B2, “Compounds and methods for selective proteolysis of glucocorticoid receptors” (Board of Regents, The University of Texas System, priority 2018, dated 2024)
Several values for one entry are separate records, joined by “and”; a condition that tells them apart may be missing. Equal values may be shown once. Read-outs that look alike come from different tables or passages of the source.

Columns and labels:
DU145 cells = experiment: DU145 cell line proliferation assay (Incucyte confluency); assay type: cell-based; details: 1 μM, 3.3 μM or 10 μM, 5 days, versus DMSO control
Experimental: DU145 cells are routinely maintained in RPMI 1640 media. Proliferation is determined using a real time cell imaging device, Incucyte. Cells are initially seeded at density of 2000 cells per well in 96-well plates. 24 hours post-seeding, cells are treated with DMSO control or GR degraders at 1 μM, 3.3 μM or 10 μM concentration. Cells are allowed to grow under regular growth conditions for 5 days while being monitored and imaged every four hours by Incucyte. Confluency of cells, a surrogate for proliferation, is calculated and plotted.

[1] = tested on: VCaP prostate cancer cells; experiment: In vivo anti-tumor efficacy, VCaP castration resistant prostate cancer xenograft model; set-up: species or system Male CB17 SCID Mice; details: castrated CB17 SCID mice, Example 3 100 mg/kg + enzalutamide 10 mg/kg IP once daily
Experimental: 1×10^7 VCaP cells were injected into the flanks of male CB17 SCID Mice. Tumor take was monitored visually and by palpation bi-weekly. Once tumors reached 200 mm^3 mice were castrated. Once tumors stopped shrinking, mice were randomized into control and different treatment groups for 26 days. Treatment cohorts are as follows: • a. Vehicle is 5% Cremophor: 5% Ethanol in saline, (n=10 animals) • b. GR degrader example #3 (100 mg/kg) IP once daily in 5% Cremophor: 5% Ethanol in saline (n=10 animals) • c. Enzalutamide (10 mg/kg) IP once daily in 5% Cremophor: 5% Ethanol in saline (n=10 animals) • d. GR degrader example #3 (100 mg/kg)+Enzalutamide (10 mg/kg) IP once daily in 5% Cremophor: 5% Ethanol in saline (n=10 animals)
Tumor diameter and volume were calculated based on caliper measurements of tumor length and […] using the formula tumor volume=(length×width^2)/2. Tumor volume and body weight were measured three times a week.

[2] = tested on: TRAMP-C1 prostate cancer cells; experiment: In vivo anti-tumor efficacy, TRAMP-C1 tumors in immunocompetent mice; set-up: species or system male C57/Bl6 mice; details: C57/Bl6 mice, Example 3 100 mg/kg + anti-PD1 antibody 200 μg IP once daily, 7 days
Experimental: TRAMP-C1 cells (5×10^6) were injected into the flanks of male C57/Bl6 mice. Tumor take was monitored visually and by palpation bi-weekly. Once tumors reached 200 mm^3 mice were randomized into control and different treatment groups for 7 days. Treatment cohorts are as follows: • a. Vehicle is 5% Cremophor: 5% Ethanol in saline, (n=10 animals) • b. GR degrader Example #3 (100 mg/kg) IP once daily in 5% Cremophor: 5% Ethanol in saline (n=10 animals) • c. Anti-PD1 antibody, clone RMP1-14 (200 μg) IP once daily in 5% Cremophor: 5% Ethanol in saline (n=10 animals) • d. GR degrader Example #3 (100 mg/kg)+Anti-PD1 antibody (200 μg) IP once daily in 5% Cremophor: 5% Ethanol in saline (n=10 animals)
Tumor diameter and volume were calculated based on caliper measurements of tumor length and […] using the formula tumor volume=(length×width^2)/2. Tumor volume and body weight were measured three times.

[3] = Single dose intraperitoneal pharmacokinetics in CD-1 mice, plasma concentration by HPLC-MS; assay type: in vivo
Experimental: The intraperitoneal bioavailability was determined in the following study: three CD-1 female mice were dosed by intraperitoneal injection (10 mg/kg) and plasma collected at the following hourly time points (0.083, 0.25, 0.5, 1, 2, […] and 24h). Plasma concentration was determined by HPLC-MS.
Table 1 illustrates pharmacokinetic properties of the Example 3 compound in CD-1 mice (n=3) after a single intraperitoneal dose of 10 mg/kg.

PC3 cells = experiment: PC3 cell line clonogenic (colony formation) assay; assay type: cell-based; details: 3.3 μM or 10 μM, 10-14 days, versus DMSO control
Experimental: PC3 cells are routinely maintained in RPMI 1640 media. Cell growth is determined using crystal violet staining. Cells are initially seeded at density of 1000 to 2000 cells per well in 6-well plates. 24 hours post-seeding, cells are treated with DMSO control, enzalutamide, RU-486 or various GR degraders at 3.3 μM or 10 μM concentration. Cells are allowed to grow under regular growth conditions for 10-14 days. Cells are then fixed with 80% MeOH and stained with crystal violet solution (0.05%) overnight. Plates are then washed in water, dried and scanned.

[4] = Single dose intraperitoneal pharmacokinetics in CD-1 mice, plasma concentration by HPLC-MS; assay type: in vivo; details: 10 mg/kg IP
[5] = female, mouse, ip, CD-1 mice (n=3), single intraperitoneal dose of 10 mg/kg

CC#C[C@]1(O)CC[C@H]2[C@@H]3CCC4=CC(=O)CCC4=C3[C@@H](c3ccc(N(C)CCCC(=O)N4CCN(C(=O)OC(C)(C)C)CC4C(=O)N4CCN(C(=O)OC(C)(C)C)CC4C(=O)NCCCOCCOCCOCCCNc4cccc5c4C(=O)N(C4CCC(=O)NC4=O)C5=O)cc3)C[C@@]21C (stereo partly drawn) [Example 3, tert-Butyl-4-(4-(tert-butoxycarbonyl)-1-(4-((4-((8S,11R,13S,14S,17S)-17-hydroxy-13-methyl-3-oxo-17-(prop-1-yn-1-yl)-2,3,6,7,8,11,12,13,14,15,16,17-dodecahydro-1H-cyclopenta[a]phenanthren-11-yl)phenyl)(methyl)amino)butanoyl)piperazine-2-carbonyl)-3-((3-(2-(2-(3-((2-(2,6-dioxopiperidin-3-yl)-1,3-dioxoisoindolin-4-yl)amino)-propoxy)ethoxy)ethoxy)propyl)carbamoyl)piperazine-1-carboxylate]
Proliferation (confluency) (DU145 cells): displays efficacy against DU145 cancer cells | Xenograft tumor growth, combination with enzalutamide [1]: synergizes with enzalutamide to inhibit growth of prostate cancer | Tumor growth, combination with anti-PD1 antibody [2]: synergizes with anti-PD1 antibody to inhibit growth of prostate cancer | concentration at 0.5 h ([3]; 0.083 hr, 10 mg/kg IP, CD-1 mice, individual animals, 10 mg/kg, read-out: Individual concentration): 72.2 nM and 135 nM | concentration at 0.5 h ([3]; 0.25 hr, 10 mg/kg IP, CD-1 mice, individual animals, 10 mg/kg, read-out: Individual concentration): 283 nM and 93 nM and 173 nM | concentration at 0.5 h ([3]; 0.5 hr, 10 mg/kg IP, CD-1 mice, individual animals, 10 mg/kg, read-out: Individual concentration): 652 nM and 939 nM | concentration at 0.5 h ([3]; 1 hr, 10 mg/kg IP, CD-1 mice, individual animals, 10 mg/kg, read-out: Individual concentration): 1010 nM and 147 nM and 358 nM | concentration at 0.5 h ([3]; 2 hr, 10 mg/kg IP, CD-1 mice, individual animals, 10 mg/kg, read-out: Individual concentration): 1480 nM and 2870 nM | concentration at 0.5 h ([3]; 24 hr, 10 mg/kg IP, CD-1 mice, individual animals, 10 mg/kg, read-out: Individual concentration): 505 nM and 617 nM | concentration at 0.083 h ([3]; female, CD-1, mouse, ip, 10 mg/kg, 0.083 hr, 10 mg/kg IP, CD-1 mice, individual animals, read-out: Individual concentration): 114 nM | concentration at 0.083 h ([3]; female, CD-1, mouse, ip, 10 mg/kg, 0.083 hr, 10 mg/kg IP, CD-1 mice, n=3, read-out: Mean concentration): 107 nM | concentration at 0.25 h ([3]; female, CD-1, mouse, ip, 10 mg/kg, 0.25 hr, 10 mg/kg IP, CD-1 mice, n=3): 183 nM | concentration at 0.5 h ([3]; female, CD-1, mouse, ip, 10 mg/kg, 0.5 hr, 10 mg/kg IP, CD-1 mice, individual animals, read-out: Individual concentration): 727 nM | concentration at 0.5 h ([3]; female, CD-1, mouse, ip, 10 mg/kg, 0.5 hr, 10 mg/kg IP, CD-1 mice, n=3, read-out: Mean concentration): 773 nM | concentration at 1 h ([3]; female, CD-1, mouse, ip, 10 mg/kg, 1 hr, 10 mg/kg IP, CD-1 mice, n=3): 505 nM | concentration at 2 h ([3]; female, CD-1, mouse, ip, 10 mg/kg, 2 hr, 10 mg/kg IP, CD-1 mice, individual animals, read-out: Individual concentration): 2240 nM | concentration at 2 h ([3]; female, CD-1, mouse, ip, 10 mg/kg, 2 hr, 10 mg/kg IP, CD-1 mice, n=3, read-out: Mean concentration): 2200 nM | concentration at 4 h ([3]; female, CD-1, mouse, ip, 10 mg/kg, 10 mg/kg IP, CD-1 mice, individual animals, read-out: Individual concentration): 3300 nM | concentration at 4 h ([3]; female, CD-1, mouse, ip, 10 mg/kg, 10 mg/kg IP, CD-1 mice, n=3, read-out: Mean concentration): 3240 nM | concentration at 24 h ([3]; female, CD-1, mouse, ip, 10 mg/kg, 24 hr, 10 mg/kg IP, CD-1 mice, individual animals, read-out: Individual concentration): 440 nM | concentration at 24 h ([3]; female, CD-1, mouse, ip, 10 mg/kg, 24 hr, 10 mg/kg IP, CD-1 mice, n=3, read-out: Mean concentration): 521 nM | AUC(0-t) [3, 5]: 46.2 µM·h | Cmax [3, 5]: 3240 nM | Tmax [3, 5]: 4 h | Colony formation (crystal violet staining) (PC3 cells): inhibited colony formation | concentration at 8 h ([4]; 4 hr, individual animals, read-out: Individual concentration): 3220 nM and 3210 nM | concentration at 8 h ([4]; 8 hr, individual animals, read-out: Individual concentration): 2980 nM and 2610 nM | concentration at 8 h ([4]; female, CD-1, mouse, ip, 10 mg/kg, 8 hr, individual animals, read-out: Individual concentration): 2900 nM | concentration at 8 h ([4]; female, CD-1, mouse, ip, 10 mg/kg, 8 hr, n=3, read-out: Mean concentration): 2830 nM

CNC(=O)c1ccc(N2C(=S)N(c3ccc(C#N)c(C(F)(F)F)c3)C(=O)C2(C)C)cc1F [enzalutamide, reference compound]
Proliferation (confluency) (DU145 cells): did not differ significantly from control | Colony formation (crystal violet staining) (PC3 cells): did not differ significantly from control
